Values after ≈ are worked out from the molar mass of the structure shown.

A word on the MIC: it is the lowest concentration found to suppress growth. A low value points to inhibition by little substance.

The assay is filed under the species Oryctolagus cuniculus. Kind of assay: Minimum concentration of compound was evaluated for inhibiting iron-dependent lipid peroxidation of rabbit brain homogenate in vitro. Type of assay: functional.
In turn, `COc1ccc2c(c1C(=O)O)Nc1ccccc1O2` came in with a minimal inhibitory concentration (MIC) of 9.1 µM (≈ 2.34 µg/mL).

In turn, `CN(O)C(=O)/C=C/c1ccc2c(c1)Nc1ccccc1O2` gave an MIC of 0.35 µM (≈ 0.0988 µg/mL). For `CN(O)C(=O)c1ccc2c(c1)Nc1ccccc1O2` the value was 0.65 µM (≈ 0.167 µg/mL); for `O=C(NO)c1ccc2c(c1)Nc1ccccc1O2`, 0.41 µM (≈ 0.0993 µg/mL); for `COc1ccc2c(c1C(=O)NO)Nc1ccccc1O2`, 3.7 µM (≈ 1.01 µg/mL).

`COC(=O)c1ccc2c(c1)Nc1ccccc1O2` returned a minimal inhibitory concentration (MIC) of 0.22 µM (≈ 0.0531 µg/mL).

On to `O=C(O)c1ccc2c(c1)Nc1ccccc1O2`, for which inhibition of growth (MIC) required 0.44 µM (≈ 0.1 µg/mL).

Compound `O=C(O)/C=C/c1ccc2c(c1)Nc1ccccc1O2` came in with an MIC of 0.12 µM (≈ 0.0304 µg/mL). Turning to `CCOC(=O)/C=C/c1ccc2c(c1)Nc1ccccc1O2`, inhibition of growth (MIC) required 0.19 µM (≈ 0.0534 µg/mL).

In turn, `COC(=O)c1cccc2c1Nc1ccccc1O2` had an MIC of 4.2 µM (≈ 1.01 µg/mL). For `O=C(O)c1cccc2c1Nc1ccccc1O2` the value was 4.4 µM (≈ 1 µg/mL); for `c1ccc2c(c1)Nc1ccccc1O2` [PHENOXAZINE], 0.055 µM (≈ 0.0101 µg/mL).

(Values after ChEMBL document CHEMBL1125975, “Enzymic and nonenzymic lipid peroxidation: inhibition by substituted phenoxazines” (Bioorg Med Chem Lett, 1991).)
